{
  "source": "paper PMC8329121",
  "about": "(Journal of Neuroimmune Pharmacology, 2021)",
  "key": {"[1]": {"target": "T1, E2C-I159A/H547A (C90A/C306A/I159A/H547A) (Homo sapiens, UniProt Q01959, C306A/C90A/H547A/I159A)", "T1 construct": "expressed in transfected cells; host or cells: HEK293 cells, transient, pcDNA3.1+", "T1 sequence (Q01959 1-620 C90A/I159A/C306A/H547A)": "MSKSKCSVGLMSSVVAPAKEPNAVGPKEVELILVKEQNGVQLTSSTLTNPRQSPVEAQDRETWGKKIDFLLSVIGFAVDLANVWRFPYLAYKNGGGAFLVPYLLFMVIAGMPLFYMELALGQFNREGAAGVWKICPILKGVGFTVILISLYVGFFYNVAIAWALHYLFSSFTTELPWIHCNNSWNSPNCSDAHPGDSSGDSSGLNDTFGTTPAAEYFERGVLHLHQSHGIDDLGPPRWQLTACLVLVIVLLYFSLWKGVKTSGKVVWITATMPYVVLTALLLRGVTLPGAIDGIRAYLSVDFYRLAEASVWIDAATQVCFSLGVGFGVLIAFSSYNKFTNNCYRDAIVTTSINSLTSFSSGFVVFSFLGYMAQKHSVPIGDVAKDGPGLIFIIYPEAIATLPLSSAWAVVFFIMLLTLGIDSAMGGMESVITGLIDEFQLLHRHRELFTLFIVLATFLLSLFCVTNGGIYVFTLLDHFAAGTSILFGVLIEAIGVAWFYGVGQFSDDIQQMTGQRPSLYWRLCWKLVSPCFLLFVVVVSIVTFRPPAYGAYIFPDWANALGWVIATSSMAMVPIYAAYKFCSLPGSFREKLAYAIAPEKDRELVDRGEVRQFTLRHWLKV", "experiment": "MTSET assay, [3H]DA uptake in HEK293 cells", "assay_type": "cell-based", "conditions": "1 mM MTSET", "description": "All mutants on hDAT were generated based on the predictions made using our computational model, as described previously using site-directed mutagenesis based on the wild-type hDAT (WT hDAT) sequence (NCBI, cDNA clone MGC: 164,608 IMAGE: 40,146,999) (Quizon et al. [2016]). The combination of hDAT mutations on Asp206 and His547 (Aspartic acid 206 to leucine and histidine 547 to alanine, D206L/H547A) were predicted to eliminate two hydrogen bonds between Tat and hDAT. In addition, the combination of mutations on Tyr88, Asp206, and His547 (tyrosine88 to phenylalanine and aspartic acid 206 to leucine and histidine 547 to alanine, Y88F/D206L/H547A) were predicted to eliminate three hydrogen bonds from the Tat-hDAT complex. Two extracellular cysteine90 and cysteine306 residues on WT hDAT were mutated to alanine as E2C hDAT (C90A/C306A hDAT), rendering the E2C hDAT MTSET-insensitive background (Pedersen et al. [2014]). A triple mutation of the two cysteine90 and 306 residues to alanine and […] to cysteine on WT hDAT was generated as E2C-I159C hDAT (C90A/C306A/I159C) for MTSET-sensitive construct. A combination of C90A/C306A/H547A was generated as E2C/H547A hDAT for MTSET-insensitive control for H547A. To determine whether H547A-enhanced DA transport is mediated by changing transporter conformation, two combinations of C90A/C306A/I159C/H547A and C90A/C306A/I159A/H547A were generated as E2C-I159C/H547A and E2C-I159A/H547A for positive and negative controls for MTSET sensitive background, respectively. Synthetic cDNA encoding hDAT subcloned into pcDNA3.1+ (provided by Dr. Haley E Melikian, University of Massachusetts) was used as a template to generate mutants using site-directed mutagenesis performed by GENEWIZ (South Plainfield, NJ). DNA sequencing was also performed by GENEWIZ to confirm the sequences of the mutant constructs. Plasmid DNA were propagated and purified using the Qiagen Hi-speed maxi prep plasmid DNA isolation kit (Qiagen, Valencia, CA, USA).\nThis assay was performed based on the previous report with minor modifications (Loland et al. [2004], [2008]). First, we generated five WT hDAT based plasmid construct for MTSET-insensitive or sensitive background as we described above. HEK293 cells were grown in poly-d-lysine coated plates at a density of 1 × 10^5 cells/cm^2 were transfected with different E2C- associated hDAT background constructs: E2C hDAT, E2C-I159C hDAT, E2C/H547A hDAT, E2C-I159C/H547A or E2C-I159A/H547A. Twenty-four hours after the transfection, cells were washed twice with 1× KRH buffer, and preincubated with or without the presence of 10 µM nomifensine (for non-specific uptake) and MTSET for 10 min at room temperature. MTSET at 1 mM final concentration was chosen based on a pilot study on optimizing MTSET concentrations (0.1, 0.5 or 1.0 mM). […] Because MTSET is easily hydrolyzed in solution, the amount needed for a 10 × stock was weighed out and dissolved in 1 × KRH buffer just right before adding to the assigned wells, for a 10-fold dilution (final concentration of 1 mM in final volume of 250 µl). […] Cells were immediately washed twice with ice-cold 1 × KRH buffer to terminate the reaction and were lysed rapidly with the addition of 1 % SDS. Cell lysates were collected after incubation for 1 h at room temperature and radioactivity was determined the next day."}, "[2]": {"target": "T2, E2C-I159C hDAT (C90A/C306A/I159C) (Homo sapiens, UniProt Q01959, C306A/C90A/I159C)", "T2 construct": "expressed in transfected cells; host or cells: HEK293 cells, transient, pcDNA3.1+", "T2 sequence (Q01959 1-620 C90A/I159C/C306A)": "T1 sequence (Q01959 1-620 C90A/I159A/C306A/H547A) with A159C, A547H", "parameters": "method as in Loland et al. [2004], [2008]", "conditions": "0.5 mM MTSET for 10 min; ref Loland et al. [2004], [2008]; cited from earlier work"}},
  "note": "Changes are numbered by the printed parent chain.",
  "data": [
    {"smiles": "C[N+](C)(C)CCSS(C)(=O)=O", "note": "[MTSET, [2-(trimethylammonium)ethyl]-methanethiosulfonate]", "values": [
      {"measurement": "inhibition of DA uptake relative to E2C", "setting": "[1]; Fig. 8b", "result": 31, "unit": "%"},
      {"measurement": "[3H]DA uptake in the presence of MTSET", "setting": "[1]; HEK293, Fig. 8b", "result": "59.7 ± 5.7"},
      {"measurement": "inhibition on E2C-I159C", "setting": "[2]", "result": 40, "unit": "%"}
    ]}
  ]
}
